Tests used:
Assay type in all cases: cell-based
Nav 1.7 [1] = target: T1, Nav 1.7 (Homo sapiens (Human), UniProt Q15858); assay: Nav 1.7 in vitro assay, IonWorks Quattro (IWQ) population patch-clamp; conditions: HEK 293 cells stably transfected with Nav 1.7; for IC50: 26th pulse to -20 mV; for inhibition at 4.9 µM: HEK293, values marked *, read-out: Nav 1.7 IWQ percent inhibition at 4.9 μM
Protocol: (§1) Nav 1.7 and Nav 1.5 In Vitro Assays
(§2) HEK 293 cells stably transfected with either Nav 1.7 or with Nav 1.5 were recorded in population patch-clamp mode with the IonWorks® Quattro automated electrophysiology system in accordance with the manufacturer's specifications (Molecular Devices, LLC, Sunnyvale, Calif.). Sodium channel currents were measured in response to a train of depolarizations that induced successively greater inactivation.
(§3) Cells were held at −110 mV for three seconds (Nav 1.7) or half a second (Nav 1.5) from a holding voltage of −15 mV, then put through a series of 26 pulses of 150 msec duration to −20 mV at a frequency of 5 Hz. Cells were then left unclamped for a period of 3 to 8 minutes while a single concentration of test compound was added. Cells were then reclamped and put through the same voltage protocol. Current at the end of the 26th pulse to −20 mV was subtracted from the peak current evoked by the 26th pulse to −20 mV to correct for leak current. Percent block was calculated for each concentration in duplicate, and IC50 curves were fitted to percent block as a function of concentration.

Nav 1.7 [2] = target: T1, Nav 1.7; assay: Nav 1.7 in vitro PX assay, PatchXpress whole cell voltage clamp; conditions: HEK 293 cells stably transfected with human Nav1.7; for IC50: partially inactivated state (20 to 50% inactivation)
Protocol: Nav 1.7 In Vitro PX Assay
HEK 293 cells stably transfected with human Nav1.7 were recorded in whole cell voltage clamp mode with the PatchXpress automated electrophysiology system (Molecular Devices, LLC, Sunnyvale, Calif.). Compound effects were measured on a partially inactivated state of the sodium channel. Cells were clamped to a holding potential yielding 20 to 50% inactivation. To elicit sodium current, channels were activated by pulsing to −10 mV for 20 msec. This voltage protocol was repeated at a rate of 0.1 Hz throughout the experiment. A single concentration of test compound was applied to cells for a duration of 3 minutes. Peak sodium current was measured at the end of the compound addition period to determine percent inhibition. Three to five cells were tested per concentration, and IC50 curves were fitted to percent inhibition as a function of concentration.

Nav 1.5 = Nav 1.5 (Homo sapiens (Human), UniProt Q14524); assay: Nav 1.5 in vitro assay, IonWorks Quattro (IWQ) population patch-clamp; conditions: HEK 293 cells stably transfected with Nav 1.5; 26th pulse to -20 mV
Sequence of Nav 1.5 (Q14524 whole entry): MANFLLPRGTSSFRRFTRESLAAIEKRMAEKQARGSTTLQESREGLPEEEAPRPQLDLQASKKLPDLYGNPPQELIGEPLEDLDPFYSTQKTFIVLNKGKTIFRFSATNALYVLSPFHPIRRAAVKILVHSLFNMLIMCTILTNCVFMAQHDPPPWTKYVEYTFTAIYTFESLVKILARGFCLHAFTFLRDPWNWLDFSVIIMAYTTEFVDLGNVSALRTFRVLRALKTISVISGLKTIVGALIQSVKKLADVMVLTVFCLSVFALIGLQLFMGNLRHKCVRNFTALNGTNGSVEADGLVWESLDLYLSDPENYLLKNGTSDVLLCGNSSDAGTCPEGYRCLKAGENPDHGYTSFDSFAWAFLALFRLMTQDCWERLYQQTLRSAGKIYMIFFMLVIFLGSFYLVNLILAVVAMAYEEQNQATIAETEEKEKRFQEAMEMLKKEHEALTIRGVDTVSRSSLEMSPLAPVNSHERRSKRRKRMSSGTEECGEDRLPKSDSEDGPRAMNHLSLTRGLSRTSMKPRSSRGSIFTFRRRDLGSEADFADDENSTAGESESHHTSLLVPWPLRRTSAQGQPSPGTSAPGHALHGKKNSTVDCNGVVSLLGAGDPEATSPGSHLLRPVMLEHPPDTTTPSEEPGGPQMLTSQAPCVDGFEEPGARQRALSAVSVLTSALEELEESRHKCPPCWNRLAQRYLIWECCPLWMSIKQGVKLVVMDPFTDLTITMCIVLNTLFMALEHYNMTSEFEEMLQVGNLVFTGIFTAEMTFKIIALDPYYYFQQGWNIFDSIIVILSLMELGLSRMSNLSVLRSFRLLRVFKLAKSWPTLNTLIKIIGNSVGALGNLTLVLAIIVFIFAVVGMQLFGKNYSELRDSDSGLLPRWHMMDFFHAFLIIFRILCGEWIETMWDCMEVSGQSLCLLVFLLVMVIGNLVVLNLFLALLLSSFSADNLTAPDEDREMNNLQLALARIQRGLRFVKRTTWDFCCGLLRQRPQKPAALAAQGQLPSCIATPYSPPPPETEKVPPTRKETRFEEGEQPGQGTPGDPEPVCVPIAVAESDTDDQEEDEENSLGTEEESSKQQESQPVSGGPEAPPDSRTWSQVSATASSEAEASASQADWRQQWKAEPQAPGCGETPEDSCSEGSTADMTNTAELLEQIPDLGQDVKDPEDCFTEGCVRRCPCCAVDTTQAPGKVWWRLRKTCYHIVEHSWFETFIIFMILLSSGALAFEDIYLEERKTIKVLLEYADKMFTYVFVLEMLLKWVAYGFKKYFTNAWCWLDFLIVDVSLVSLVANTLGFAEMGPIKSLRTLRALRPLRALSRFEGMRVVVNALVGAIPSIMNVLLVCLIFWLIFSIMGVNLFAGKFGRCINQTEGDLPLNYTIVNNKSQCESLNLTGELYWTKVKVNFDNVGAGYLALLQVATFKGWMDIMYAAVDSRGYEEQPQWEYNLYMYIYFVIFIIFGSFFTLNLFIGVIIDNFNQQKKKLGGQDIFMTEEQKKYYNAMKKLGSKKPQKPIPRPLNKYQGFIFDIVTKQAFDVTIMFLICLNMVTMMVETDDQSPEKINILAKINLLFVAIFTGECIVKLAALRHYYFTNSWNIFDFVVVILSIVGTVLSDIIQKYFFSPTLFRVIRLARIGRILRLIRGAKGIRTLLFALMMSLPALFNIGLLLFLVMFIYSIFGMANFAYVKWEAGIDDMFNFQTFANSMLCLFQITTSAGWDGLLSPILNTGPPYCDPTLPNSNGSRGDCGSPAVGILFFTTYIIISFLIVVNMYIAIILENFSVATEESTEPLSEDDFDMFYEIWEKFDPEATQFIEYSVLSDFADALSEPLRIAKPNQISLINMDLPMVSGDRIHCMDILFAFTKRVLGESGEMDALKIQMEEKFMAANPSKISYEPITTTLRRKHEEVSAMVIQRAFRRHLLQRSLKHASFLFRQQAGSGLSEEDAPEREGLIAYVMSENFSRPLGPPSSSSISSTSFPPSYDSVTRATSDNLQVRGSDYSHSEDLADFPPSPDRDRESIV
Protocol: as §1, §2, §3

T1 sequence (Q15858 whole entry): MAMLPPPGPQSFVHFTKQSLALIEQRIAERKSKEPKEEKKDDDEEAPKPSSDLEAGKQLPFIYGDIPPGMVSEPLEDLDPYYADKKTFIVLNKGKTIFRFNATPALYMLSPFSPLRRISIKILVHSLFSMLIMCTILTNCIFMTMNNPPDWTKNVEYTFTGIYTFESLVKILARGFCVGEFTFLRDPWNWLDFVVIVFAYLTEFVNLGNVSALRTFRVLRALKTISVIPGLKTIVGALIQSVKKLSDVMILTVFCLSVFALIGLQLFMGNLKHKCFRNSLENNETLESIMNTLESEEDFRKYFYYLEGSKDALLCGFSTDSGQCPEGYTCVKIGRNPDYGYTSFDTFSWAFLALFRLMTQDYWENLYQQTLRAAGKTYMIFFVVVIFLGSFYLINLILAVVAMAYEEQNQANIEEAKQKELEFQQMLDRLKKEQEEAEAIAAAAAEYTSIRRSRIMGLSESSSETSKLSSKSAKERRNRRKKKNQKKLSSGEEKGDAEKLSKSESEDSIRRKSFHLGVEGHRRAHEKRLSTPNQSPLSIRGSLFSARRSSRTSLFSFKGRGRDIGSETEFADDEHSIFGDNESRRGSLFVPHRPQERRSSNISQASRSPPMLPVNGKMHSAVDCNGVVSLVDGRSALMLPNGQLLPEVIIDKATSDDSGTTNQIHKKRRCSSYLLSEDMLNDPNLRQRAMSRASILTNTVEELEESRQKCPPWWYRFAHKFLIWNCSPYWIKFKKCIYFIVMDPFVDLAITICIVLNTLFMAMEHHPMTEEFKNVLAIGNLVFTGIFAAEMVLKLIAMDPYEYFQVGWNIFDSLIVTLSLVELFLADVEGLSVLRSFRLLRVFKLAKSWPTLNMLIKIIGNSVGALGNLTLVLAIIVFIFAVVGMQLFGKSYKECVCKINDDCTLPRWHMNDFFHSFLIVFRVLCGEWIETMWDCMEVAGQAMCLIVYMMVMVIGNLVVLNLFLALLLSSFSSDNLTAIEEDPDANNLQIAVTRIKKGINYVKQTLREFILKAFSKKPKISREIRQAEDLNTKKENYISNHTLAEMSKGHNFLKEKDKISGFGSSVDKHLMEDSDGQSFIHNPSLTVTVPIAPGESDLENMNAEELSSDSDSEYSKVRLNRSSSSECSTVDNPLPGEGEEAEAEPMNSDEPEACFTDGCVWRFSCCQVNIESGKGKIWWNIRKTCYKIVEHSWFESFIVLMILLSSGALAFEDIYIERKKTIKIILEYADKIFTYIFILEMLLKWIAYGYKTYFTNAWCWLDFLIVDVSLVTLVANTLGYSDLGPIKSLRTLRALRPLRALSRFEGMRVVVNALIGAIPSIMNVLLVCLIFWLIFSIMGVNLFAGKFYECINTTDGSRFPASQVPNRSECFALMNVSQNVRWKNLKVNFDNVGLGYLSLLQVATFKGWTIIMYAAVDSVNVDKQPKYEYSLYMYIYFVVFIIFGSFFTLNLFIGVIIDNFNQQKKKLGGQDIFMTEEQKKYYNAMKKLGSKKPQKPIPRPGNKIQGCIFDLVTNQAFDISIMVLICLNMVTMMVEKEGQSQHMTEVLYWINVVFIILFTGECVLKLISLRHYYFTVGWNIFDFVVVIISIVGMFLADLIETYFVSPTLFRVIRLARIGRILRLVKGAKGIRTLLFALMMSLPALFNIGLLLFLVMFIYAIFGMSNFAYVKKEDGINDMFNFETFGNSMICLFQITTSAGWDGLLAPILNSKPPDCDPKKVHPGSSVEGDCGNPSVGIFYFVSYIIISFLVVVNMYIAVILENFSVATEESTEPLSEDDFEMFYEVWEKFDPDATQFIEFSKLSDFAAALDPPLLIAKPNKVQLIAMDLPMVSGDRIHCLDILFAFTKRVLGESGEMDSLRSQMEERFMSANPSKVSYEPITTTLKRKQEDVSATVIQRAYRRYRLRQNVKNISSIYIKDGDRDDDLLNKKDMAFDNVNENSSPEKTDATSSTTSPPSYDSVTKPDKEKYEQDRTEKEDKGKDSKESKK

Compound	IC50 (Nav 1.7 [1]) [µM]	IC50 (Nav 1.5) [µM]	further results
CC1CN(c2ccc(C(F)(F)F)cc2C#N)c2ccc(S(=O)(=O)Nc3nccs3)cc2O1 (racemic) [Example 93, 4-(2-Cyano-4-(Trifluoromethyl)Phenyl)-2-Methyl-N-(Thiazol-2-Yl)-3,4-Dihydro-2H-Benzo[B][1,4]Oxazine-7-Sulfonamide]	0.0785	1.84	IC50 (Nav 1.7 [2]): 0.566 µM
Cc1cnc(NS(=O)(=O)c2ccc3c(c2)OCCN3c2ccc(C(F)(F)F)cc2Cl)s1 [Example 12, 4-(2-Chloro-4-(Trifluoromethyl)Phenyl)-N-(5-Methylthiazol-2-Yl)-3,4-Dihydro-2H-Benzo[B][1,4]Oxazine-7-Sulfonamide]	–	> 10	inhibition at 4.9 µM (Nav 1.7 [1]): 24.5%
CN(C)CCn1ccc(NS(=O)(=O)c2ccc3c(c2)OCCN3c2ccc(C(F)(F)F)cc2Cl)n1 [Example 14, 4-(2-Chloro-4-(Trifluoromethyl)Phenyl)-N-(1-(2-(Dimethylamino)Ethyl)-1H-Pyrazol-3-Yl)-3,4-Dihydro-2H-Benzo[B][1,4]Oxazine-7-Sulfonamide 2,2,2-Trifluoroacetate]	9.31	8.25	–
Cn1ccc(NS(=O)(=O)c2ccc3c(c2)OCCN3c2ccc(C(F)(F)F)cc2Cl)n1 [Example 15, 4-(2-Chloro-4-(Trifluoromethyl)Phenyl)-N-(1-Methyl-1H-Pyrazol-3-Yl)-3,4-Dihydro-2H-Benzo[B][1,4]Oxazine-7-Sulfonamide]	6.11	> 10	–
CC(=O)N1CCN(c2ccc(C(F)(F)F)cc2Cl)c2ccc(S(=O)(=O)Nc3ncns3)cc21 [Example 20, 4-Acetyl-1-(2-Chloro-4-(Trifluoromethyl)Phenyl)-N-(1,2,4-Thiadiazol-5-Yl)-1,2,3,4-Tetrahydroquinoxaline-6-Sulfonamide]	7.6	–	inhibition at 4.9 µM (Nav 1.7 [2]; HEK293, values marked *, 4.9 μM, read-out: Nav 1.7 PX percent inhibition at 4.9 μM): 33.2%
O=S(=O)(Nc1nccs1)c1ccc2c(c1)OCCN2c1ccc(Cl)cc1C1=CCNCC1 [Example 52, 4-(4-Chloro-2-(1,2,3,6-Tetrahydropyridin-4-Yl)Phenyl)-N-(Thiazol-2-Yl)-3,4-Dihydro-2H-Benzo[B][1,4]Oxazine-7-Sulfonamide 2,2,2-Trifluoroacetate]	0.0045	–	IC50 (Nav 1.7 [2]): 0.0355 µM
Cc1ccc2cnccc2c1N1CCOc2cc(S(=O)(=O)Nc3nccs3)ccc21 [Example 73, 4-(6-Methylisoquinolin-5-Yl)-N-(Thiazol-2-Yl)-3,4-Dihydro-2H-Benzo[B][1,4]Oxazine-7-Sulfonamide 2,2,2-Trifluoroacetate]	7.58	> 10	–
O=S(=O)(Nc1nccs1)c1ccc2c(c1)OCCN2c1cc(F)ccc1F [Example 83, 4-(2,5-Difluorophenyl)-N-(Thiazol-2-Yl)-3,4-Dihydro-2H-Benzo[B][1,4]Oxazine-7-Sulfonamide 2,2,2-Trifluoroacetate]	–	> 10	–
O=S(=O)(Nc1cncs1)c1ccc2c(c1)OCCN2c1ccc(C(F)(F)F)cc1C1=CCNCC1 [Example 85, 4-(2-(1,2,3,6-Tetrahydropyridin-4-Yl)-4-(Trifluoromethyl)Phenyl)-N-(Thiazol-5-Yl)-3,4-Dihydro-2H-Benzo[B][1,4]Oxazine-7-Sulfonamide 2,2,2-Trifluoroacetate]	–	> 10	inhibition at 4.9 µM (Nav 1.7 [1]): 41.1%
O=C1COc2cc(S(=O)(=O)Nc3nncs3)ccc2N1c1cccc(Cl)c1 [Example 92, 4-(3-Chlorophenyl)-3-Oxo-N-(1,3,4-Thiadiazol-2-Yl)-3,4-Dihydro-2H-Benzo[B][1,4]Oxazine-7-Sulfonamide]	–	> 10	inhibition at 4.9 µM (Nav 1.7 [1]): 26.4%
N#Cc1cncc(N2CCOc3cc(S(=O)(=O)Nc4nccs4)ccc32)c1 [Example 117, 4-(5-Cyanopyridin-3-yl)-N-(thiazol-2-yl)-3,4-dihydro-2H-benzo[b][1,4]oxazine-7-sulfonamide]	2.14	> 10	–
COc1ccc(N2CCOc3cc(S(=O)(=O)Nc4nccs4)ccc32)cc1OC [Example 119, 4-(3,4-Dimethoxyphenyl)-N-(thiazol-2-yl)-3,4-dihydro-2H-benzo[b][1,4]oxazine-7-sulfonamide]	2.53	> 10	–
O=S(=O)(Nc1nccs1)c1ccc2c(c1)OCCN2c1ncc(Cl)cc1Cl [Example 121, 4-(3,5-Dichloropyridin-2-yl)-N-(thiazol-2-yl)-3,4-dihydro-2H-benzo[b][1,4]oxazine-7-sulfonamide]	–	> 10	–
Cc1ccc(N2CCOc3cc(S(=O)(=O)Nc4nccs4)ccc32)c(C)n1 [Example 132, 4-(2,6-Dimethylpyridin-3-yl)-N-(thiazol-2-yl)-3,4-dihydro-2H-benzo[b][1,4]oxazine-7-sulfonamide]	3.56	> 10	–
COc1ccc(N2CCOc3cc(S(=O)(=O)Nc4nccs4)ccc32)c(C#N)c1 [Example 153, 4-(2-Cyano-4-Methoxyphenyl)-N-(Thiazol-2-Yl)-3,4-Dihydro-2H-Benzo[B][1,4]Oxazine-7-Sulfonamide 2,2,2-Trifluoroacetate]	–	> 10	–
O=S(=O)(Nc1nccs1)c1ccc2c(c1)OCCN2c1ccc(-n2ccnc2)cc1 [Example 154, 4-(4-(1H-Imidazol-1-Yl)Phenyl)-N-(Thiazol-2-Yl)-3,4-Dihydro-2H-Benzo[B][1,4]Oxazine-7-Sulfonamide 2,2,2-Trifluoroacetate]	–	> 10	–
O=S(=O)(Nc1nccs1)c1ccc2c(c1)OCCN2c1ccccc1C(F)(F)F [Example 157, N-(Thiazol-2-Yl)-4-(2-(Trifluoromethyl)Phenyl)-3,4-Dihydro-2H-Benzo[B][1,4]Oxazine-7-Sulfonamide 2,2,2-Trifluoroacetate]	–	> 10	–
O=C1CCCc2ccc(N3CCOc4cc(S(=O)(=O)Nc5nccs5)ccc43)cc21 [Example 160, 4-(8-Oxo-5,6,7,8-Tetrahydronaphthalen-2-Yl)-N-(Thiazol-2-Yl)-3,4-Dihydro-2H-Benzo[B][1,4]Oxazine-7-Sulfonamide 2,2,2-Trifluoroacetate]	–	> 10	–
Cc1cc(N2CCOc3cc(S(=O)(=O)Nc4nccs4)ccc32)cc(C)c1N(C)C [Example 161, 4-(4-(Dimethylamino)-3,5-Dimethylphenyl)-N-(Thiazol-2-Yl)-3,4-Dihydro-2H-Benzo[B][1,4]Oxazine-7-Sulfonamide 2,2,2-Trifluoroacetate]	–	3.49	–
CCOc1cccc(N2CCOc3cc(S(=O)(=O)Nc4nccs4)ccc32)c1 [Example 162, 4-(3-Ethoxyphenyl)-N-(Thiazol-2-Yl)-3,4-Dihydro-2H-Benzo[B][1,4]Oxazine-7-Sulfonamide 2,2,2-Trifluoroacetate]	–	> 10	–
Cc1ccc(N2CCOc3cc(S(=O)(=O)Nc4nccs4)ccc32)cc1Cl [Example 163, 4-(3-Chloro-4-Methylphenyl)-N-(Thiazol-2-Yl)-3,4-Dihydro-2H-Benzo[B][1,4]Oxazine-7-Sulfonamide 2,2,2-Trifluoroacetate]	–	3.14	–
N#Cc1ccc(F)c(N2CCOc3cc(S(=O)(=O)Nc4nccs4)ccc32)c1 [Example 164, 4-(5-Cyano-2-Fluorophenyl)-N-(Thiazol-2-Yl)-3,4-Dihydro-2H-Benzo[B][1,4]Oxazine-7-Sulfonamide 2,2,2-Trifluoroacetate]	–	> 10	–
Cc1c(Cl)cccc1N1CCOc2cc(S(=O)(=O)Nc3nccs3)ccc21 [Example 169, 4-(3-Chloro-2-Methylphenyl)-N-(Thiazol-2-Yl)-3,4-Dihydro-2H-Benzo[B][1,4]Oxazine-7-Sulfonamide 2,2,2-Trifluoroacetate]	–	> 10	–
O=S(=O)(Nc1nccs1)c1ccc2c(c1)OCCN2c1cccc(Cl)c1Cl [Example 171, 4-(2,3-Dichlorophenyl)-N-(Thiazol-2-Yl)-3,4-Dihydro-2H-Benzo[B][1,4]Oxazine-7-Sulfonamide 2,2,2-Trifluoroacetate]	–	6.44	–
O=S(=O)(Nc1nccs1)c1ccc2c(c1)OCCN2c1ccc(F)cc1F [Example 176, 4-(2,4-Difluorophenyl)-N-(Thiazol-2-Yl)-3,4-Dihydro-2H-Benzo[B][1,4]Oxazine-7-Sulfonamide 2,2,2-Trifluoroacetate]	–	> 10	–
N#Cc1ccc(F)cc1N1CCOc2cc(S(=O)(=O)Nc3nccs3)ccc21 [Example 188, 4-(2-Cyano-5-Fluorophenyl)-N-(Thiazol-2-Yl)-3,4-Dihydro-2H-Benzo[B][1,4]Oxazine-7-Sulfonamide]	–	3.62	–
CCN(CC)C(=O)CN1CCOc2cc(S(=O)(=O)Nc3nccs3)ccc21 [Example 228, N,N-Diethyl-2-(7-(N-(Thiazol-2-Yl)Sulfamoyl)-2H-Benzo[B][1,4]Oxazin-4(3 H)-Yl)Acetamide]	–	> 10	inhibition at 4.9 µM (Nav 1.7 [1]): 20%

Reference: US9346798B2, “Dihydrobenzoxazine and tetrahydroquinoxaline sodium channel inhibitors” (AMGEN INC., priority 2012, dated 2016)
